Laboratory results: patent publication US12661410B2, “Compounds for targeted degradation of RET” (C4 Therapeutics, Inc., priority 2020, dated 2026)
Positions count from the first letter of the chain named. Read-outs that look alike come from different tables or passages of the source.

Key:
RET(KD: 658-1114 G810R) = molecular target: T1, RET(KD: 658-1114 G810R) (Homo sapiens, UniProt P07949, G810R); assay: HiBiT-Degradation, RET G810R degradation assay (Nano-Glo HiBiT Lytic), 293T.165 cells; type: cell-based; conditions: for Emax / DC50: 6.0 hours
T1 construct: 658-1114; expressed in transfected cells; host or cells: 293T.165 (293T cells, generated in-house)
T1 sequence (P07949 658-1114 G810R): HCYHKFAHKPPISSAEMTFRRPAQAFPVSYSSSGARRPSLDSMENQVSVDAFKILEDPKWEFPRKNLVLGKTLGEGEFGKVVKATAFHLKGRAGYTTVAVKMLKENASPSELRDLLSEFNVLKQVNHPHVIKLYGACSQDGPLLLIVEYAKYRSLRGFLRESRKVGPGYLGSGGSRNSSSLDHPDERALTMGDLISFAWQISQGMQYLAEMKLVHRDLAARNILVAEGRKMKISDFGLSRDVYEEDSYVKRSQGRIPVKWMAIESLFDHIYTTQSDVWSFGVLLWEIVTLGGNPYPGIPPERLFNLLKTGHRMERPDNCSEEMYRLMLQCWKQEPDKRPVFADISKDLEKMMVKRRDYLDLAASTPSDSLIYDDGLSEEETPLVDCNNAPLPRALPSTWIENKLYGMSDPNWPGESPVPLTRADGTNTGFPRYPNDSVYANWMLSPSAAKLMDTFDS
Procedure, shortened: (§1)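 HEK293T lines expressing HiBiT-tagged RET kinase domain, wild-type (293T.144) or G810R (293T.165), treated 6 h in duplicate, 11-point half-log series from 10 μM top. Lytic HiBiT luminescence read; DC50 and Emax (% protein remaining) from dose-response curves.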

RET (658-1114) = molecular target: T2, RET (658-1114) (Homo sapiens, UniProt P07949); assay: HiBiT-Degradation, RET wild-type degradation assay (Nano-Glo HiBiT Lytic), 293T.144 cells; type: cell-based; conditions: for DC50 / Emax: 6.0 hours
T2 construct: 658-1114; expressed in transfected cells; host or cells: 293T.144 (293T cells, generated in-house)
T2 sequence (P07949 658-1114): T1 sequence (P07949 658-1114 G810R) with R153G
Procedure, shortened: as §1

[1] = % remaining protein, read-out: 293T.165 RET(KD: 658-1114 G810R) 6.0 hours (Emax)
[2] = half-maximal degradation concentration, read-out: 293T.165 RET(KD: 658-1114 G810R) 6.0 hours (DC50)
[3] = HiBiT-Degradation, read-out: 293T.165 RET(KD: 658-1114 G810R) 6.0 hours (DC50)
[4] = HiBiT-Degradation, read-out: 293T.144 RET (658-1114) 6.0 hours (DC50)
[5] = HiBiT-Degradation, read-out: 293T.144 RET (658-1114) 6.0 hours (Emax)
[6] = % remaining protein, read-out: 293T.144 RET (658-1114) 6.0 hours (Emax)
[7] = half-maximal degradation concentration, read-out: 293T.144 RET (658-1114) 6.0 hours (DC50)
[8] = RET G810R, read-out: HiBiT-Degradation 293T.165 RET(KD: 658-1114 G810R) 6.0 hours (Emax)
[9] = RET wild-type, read-out: HiBiT-Degradation 293T.144 RET (658-1114) 6.0 hours (DC50)
[10] = RET wild-type, read-out: HiBiT-Degradation 293T.144 RET (658-1114) 6.0 hours (Emax)

| SMILES | Emax (RET(KD: 658-1114 G810R); [1]) [%] | DC50 (RET(KD: 658-1114 G810R); [2]) [nM] | 293T.165 RET(KD: 658-1114 G810R) 6.0 hours (Emax) (RET(KD: 658-1114 G810R); HiBiT-Degradation) | 293T.165 RET(KD: 658-1114 G810R) 6.0 hours (IP) [nM] (RET(KD: 658-1114 G810R); HiBiT-Degradation) | DC50 (RET(KD: 658-1114 G810R); [3]) [nM] | 293T.144 RET (658-1114) 6.0 hours (IP) [nM] (RET (658-1114); HiBiT-Degradation) | DC50 (RET (658-1114); [4]) [nM] | Emax (RET (658-1114); [5]) [%] | 293T.165 RET(KD: 658-1114 G810R) 6.0 hours (IP) [nM] (RET(KD: 658-1114 G810R)) | 293T.144 RET (658-1114) 6.0 hours (IP) [nM] (RET (658-1114)) | Emax (RET (658-1114); [6]) [%] | DC50 (RET (658-1114); [7]) [nM] | HiBiT-Degradation 293T.165 RET(KD: 658-1114 G810R) 6.0 hours (IP) [nM] (RET(KD: 658-1114 G810R); RET G810R) | Emax (RET(KD: 658-1114 G810R); [8]) [%] | HiBiT-Degradation 293T.144 RET (658-1114) 6.0 hours (IP) [nM] (RET (658-1114); RET wild-type) | DC50 (RET (658-1114); [9]) [nM] | Emax (RET (658-1114); [10]) [%] | DC50 (RET(KD: 658-1114 G810R); RET G810R, read-out: HiBiT-Degradation 293T.165 RET(KD: 658-1114 G810R) 6.0 hours (DC50)) [nM] |
| --- | --- | --- | --- | --- | --- | --- | --- | --- | --- | --- | --- | --- | --- | --- | --- | --- | --- | --- |
| CCC1(C(=O)NC(C)C)CCN(c2ccc(-c3nc(-c4cnn(C5CCN(C(=O)CN6CCC(c7ccc(NC8CCC(=O)NC8=O)cc7F)CC6)CC5)c4)cn4ncc(C#N)c34)cn2)CC1 (centres unmarked) [Compound 53, 1-[5-[3-cyano-6-[1-[1-[2-[4-[4-[(2,6-dioxo-3-piperidyl)amino]-2-fluoro-phenyl]-1-piperidyl]acetyl]-4-piperidyl]pyrazol-4-yl]pyrazolo[1,5-a]pyrazin-4-yl]-2-pyridyl]-4-ethyl-N-isopropyl-piperidine-4-carboxamide] | < 50 | < 50 | +++ (<50% = +++) | ++++ (< 50 nM = ++++) | < 50 | ++++ (< 50 nM = ++++) | < 50 | < 30 | – | – | – | – | – | – | – | – | – | – |
| N#Cc1cnn2cc(-c3cnn(C4CCN(C(=O)CC5(O)CCN(c6ccc(NC7CCC(=O)NC7=O)cc6F)CC5)CC4)c3)nc(-c3ccc(N4CCN(C(=O)C5CCC5)CC4)nc3)c12 (centres unmarked) [Compound 112, 4-[6-[4-(cyclobutanecarbonyl)piperazin-1-yl]-3-pyridyl]-6-[1-[1-[2-[1-[4-[(2,6-dioxo-3-piperidyl)amino]-2-fluoro-phenyl]-4-hydroxy-4-piperidyl]acetyl]-4-piperidyl]pyrazol-4-yl]pyrazolo[1,5-a]pyrazine-3-carbonitrile] | < 50 | < 50 | – | – | – | – | – | – | ++++ (<50 nM = ++++) | ++++ (<50 nM = ++++) | < 30 | < 50 | – | – | – | – | – | – |
| CCC1(C(=O)NC(C)C)CCN(c2ccc(-c3nc(-c4cnn(C5CCN(C(=O)CC6(O)CCN(c7ccc(NC8CCC(=O)NC8=O)cc7Cl)CC6)CC5)c4)cn4ncc(C#N)c34)cn2)CC1 (centres unmarked) [Compound 14, 1-(5-(6-(1-(1-(2-(1-(2-Chloro-4-((2,6-dioxopiperidin-3-yl)amino)phenyl)-4-hydroxypiperidin-4-yl)acetyl)piperidin-4-yl)-1H-pyrazol-4-yl)-3-cyanopyrazolo[1,5-a]pyrazin-4-yl)pyridin-2-yl)-4-ethyl-N-isopropylpiperidine-4-carboxamide] | < 30 | < 50 | ++++ (< 30% = ++++) | ++++ (< 50 nM = ++++) | < 50 | ++++ (< 50 nM = ++++) | < 50 | < 30 | – | – | – | – | – | – | – | – | – | – |
| N#Cc1cnn2cc(-c3ccc(N4CCN(C(=O)CN5CCC(c6ccc(NC7CCC(=O)NC7=O)cc6F)CC5)CC4)cc3)cc(-c3ccc(N4CCN(Cc5ccccn5)CC4)nc3)c12 (centres unmarked) [Compound 28, 6-(4-(4-(2-(4-(4-((2,6-Dioxopiperidin-3-yl)amino)-2-fluorophenyl)piperidin-1-yl)acetyl)piperazin-1-yl)phenyl)-4-(6-(4-(pyridin-2-ylmethyl)piperazin-1-yl)pyridin-3-yl)pyrazolo[1,5-a]pyridine-3-carbonitrile] | < 30 | < 100 | ++++ (< 30% = ++++) | ++++ (< 50 nM = ++++) | < 100 | ++++ (< 50 nM = ++++) | < 50 | < 30 | – | – | – | – | – | – | – | – | – | – |
| COc1ccc(CN2C3COCC2CN(c2ccc(-c4nc(-c5cnn([C@H]6CC[C@H](N7CCN(c8cc(F)c(NC9CCC(=O)NC9=O)cc8F)CC7)CC6)c5)cn5ncc(C#N)c45)cn2)C3)cn1 (relative stereo) [Compound 162, 6-[1-[4-[4-[4-[(2,6-dioxo-3-piperidyl)amino]-2,5-difluoro-phenyl]piperazin-1-yl]cyclohexyl]pyrazol-4-yl]-4-[6-[9-[(6-methoxy-3-pyridyl)methyl]-3-oxa-7,9-diazabicyclo[3.3.1]nonan-7-yl]-3-pyridyl]pyrazolo[1,5-a]pyrazine-3-carbonitrile] | < 30 | < 100 | – | – | – | – | – | – | ++++ (<50 nM = ++++) | ++++ (<50 nM = ++++) | < 30 | < 50 | – | – | – | – | – | – |
| CCC1(C(=O)NC(C)C)CCN(c2ccc(-c3cc(-c4cnn([C@H]5CC[C@H](N6CCC(c7ccc(NC8CCC(=O)NC8=O)cc7F)CC6)CC5)c4)cn4ncc(C#N)c34)cn2)CC1 (single isomer, unassigned) [Compound 87, 1-(5-(3-cyano-6-(1-((1r, 4r)-4-(4-(4-((2,6-dioxopiperidin-3-yl)amino)-2-fluorophenyl)piperidin-1-yl)cyclohexyl)-1H-pyrazol-4-yl)pyrazolo[1,5-a]pyridin-4-yl)pyridin-2-yl)-4-ethyl-N-isopropylpiperidine-4-carboxamide] | < 30 | – | – | – | – | – | – | – | – | – | – | – | ++++ (< 50 nM = ++++) | < 30 | ++++ (< 50 nM = ++++) | < 50 | < 30 | – |
| N#Cc1cnn2cc(-c3ccc(N4CCN(C(=O)CN5CCC(c6ccc(NC7CCC(=O)NC7=O)cc6F)CC5)CC4)nc3)cc(-c3ccc(N4CCN(Cc5ccccn5)CC4)nc3)c12 (centres unmarked) [Compound 67, 6-[6-[4-[2-[4-[4-[(2,6-dioxo-3-piperidyl)amino]-2-fluoro-phenyl]-1-piperidyl]acetyl]piperazin-1-yl]-3-pyridyl]-4-[6-[4-(2-pyridylmethyl)piperazin-1-yl]-3-pyridyl]pyrazolo[1,5-a]pyridine-3-carbonitrile] | < 50 | < 100 | – | – | – | – | – | – | – | – | – | – | ++++ (< 50 nM = ++++) | < 50 | ++++ (< 50 nM = ++++) | < 50 | < 30 | < 100 |
| CCC1(C(=O)Nc2ccc(F)cc2)CCN(c2ccc(-c3nc(-c4cnn(C5CCN(C(=O)CC6(O)CCN(c7ccc(NC8CCC(=O)NC8=O)cc7F)CC6)CC5)c4)cn4ncc(C#N)c34)cn2)CC1 (centres unmarked) [Compound 101, 1-[5-[3-cyano-6-[1-[1-[2-[1-[4-[(2,6-dioxo-3-piperidyl)amino]-2-fluoro-phenyl]-4-hydroxy-4-piperidyl]acetyl]-4-piperidyl]pyrazol-4-yl]pyrazolo[1,5-a]pyrazin-4-yl]-2-pyridyl]-4-ethyl-N-(4-fluorophenyl)piperidine-4-carboxamide] | < 30 | < 50 | – | – | – | – | – | – | ++++ (<50 nM = ++++) | ++++ (<50 nM = ++++) | < 30 | < 50 | – | – | – | – | – | – |
| N#Cc1cnn2cc(-c3cnn(C4CCN(C(=O)CC5(O)CCN(c6ccc(NC7CCC(=O)NC7=O)cc6F)CC5)CC4)c3)nc(-c3ccc(N4CCC(Oc5ccccn5)CC4)nc3)c12 (centres unmarked) [Compound 109, 6-[1-[1-[2-[1-[4-[(2,6-dioxo-3-piperidyl)amino]-2-fluoro-phenyl]-4-hydroxy-4-piperidyl]acetyl]-4-piperidyl]pyrazol-4-yl]-4-[6-[4-(2-pyridyloxy)-1-piperidyl]-3-pyridyl]pyrazolo[1,5-a]pyrazine-3-carbonitrile] | < 30 | < 50 | – | – | – | – | – | – | ++++ (<50 nM = ++++) | ++++ (<50 nM = ++++) | < 30 | < 50 | – | – | – | – | – | – |
